# Entries after “also recorded” stand apart in the source; their conditions may differ.
# What was measured:
# [1] = test system: primary myoblasts from patients with ALS; experiment: Myogenic capacity of primary myoblasts from patients with ALS; format: cell-based, human; conditions: 30 nM; primary myoblasts from sporadic and familial ALS patients
# Excerpt: (§1) We looked at preliminary links between the findings in genetically-induced myoblasts and features of myoblasts from patients with ALS. To this aim, we cultured primary myoblasts obtained from muscle biopsies of two patients with ALS (patient 1 is sporadic [sALS] and patient 2 is familial [fALS]) and one control. […] Changes in TDP-43 localization were accompanied by an altered subcellular distribution of FoxO1, as reflected by increased levels of FoxO1 and FoxO3 in nuclei (FIG. 6A,C) and enhanced nuclear-to-cytosolic ratio in both patients (FIG. 6C). Remarkably, nuclear localizations of TDP-43 and FoxO1 were inversely associated in patient 2 (FIG. 6D).
# To study whether these pathological features were linked to functional outcomes of ALS muscle, we studied the myogenic capacity of ALS myoblasts and the effect of FoxO inhibition.
# [2] = test system: TDP-43 or FUS-silenced human immortalized myoblasts (cell line 8220); experiment: Myogenic differentiation (MYHC-positive myotubes, differentiation index) of silenced myoblasts; format: cell-based; conditions: 30 nM
# Excerpt: We then studied the effect of gene silencing on the myogenic process. Myogenesis was first induced by an established protocol consisting on medium replacement, in which myoblasts were exposed to differentiation medium two days after infection with lentiviral particles. However, TDP-43 and FUS knockdown myoblasts were not able to survive to the differentiating challenge. Then, we switched to a more physiologically-relevant myogenic scenario that consists on allowing spontaneous differentiation and fusion when myoblasts reach 100% confluence. Lentiviral particles of scramble shRNA, shTDP-43 or shFUS were added to the medium when […] myoblasts were at 30-40% confluence (FIG. 1D).
# Myoblasts treated with control shRNA differentiated and formed MYHC-positive myotubes 2 days after reaching 100% confluence (FIG. 1I). However, TDP-43 and FUS knockdown affected the natural capacity of cultured myoblasts to fuse and form myotubes: shTDP-43-treated myoblasts remained undifferentiated for at least 2 days after reaching 100% confluence, and shFUS-treated myoblasts formed fewer myotubes (FIG. 1I). […] We then analyzed levels of MYOD and MYOG (Myogenin), two transcription factors that are required for myoblast commitment, differentiation and fusion, respectively.
# We next explored the consequences of pharmacological or genetic inhibition of FoxO on metabolism and myogenesis in TDP-43 and FUS-silenced myoblasts. We treated all the different models of myoblasts with the compound AS1842856 at 30 nM during proliferation and let them differentiate, adding the compound at the same concentration every 2 days for 8 days. At the selected concentration, this compound binds selectively to the dephosphorylated FoxO1, and to less extent dephosphorylated FoxO3, interfering with DNA interaction and thereby resulting in inhibition of FoxO transactivation.
# In addition, treatment with the AS1842856 inhibitor modifies the expression of some of the FoxO-regulated genes that are crucial for proper myogenic differentiation.
# [3] = test system: TDP-43 or FUS-silenced human immortalized myoblasts (cell line 8220); experiment: Metabolic flux analysis (ECAR/OCR) in TDP-43 or FUS-silenced myoblasts; format: cell-based; conditions: 30 nM
# Excerpt: The translocation of TDP-43 to cytoplasm is involved in myoblast differentiation and myotube generation (see reference 14). […] Thus, given the potential implication of TDP-43 and FUS in myogenesis, we modelled the loss-of-function of these genes in the human immortalized myoblast cell line 8220 by treating these cells with shRNA-expressing lentiviral particles for TDP-43 or FUS, and further analyzed any change on cell morphology, growth and myogenic capacity (FIG. 1D).
# Molecular signaling factors and reprogramming of energy metabolism are considered crucial regulators of myogenesis during adult muscle regeneration. Since TDP-43 controls skeletal muscle glucose homeostasis, we wanted to investigate whether myogenic defects induced by loss of TDP-43, and in extension of FUS, may be mediated by abnormalities of glucose metabolism. Regarding the latest, various studies conducted in Drosophila, zebrafish and mouse myoblasts have highlighted glucose metabolism as part of the core myogenic program because of its ability to provide both the rapid source of energy and the building blocks (amino acids and nucleotides) that are required for biomass production during the formation of syncytial muscles. […]
# primary ALS myoblasts = experiment: Glycolytic flux (ECAR) of primary ALS myoblasts; format: cell-based, human
# Excerpt: as §1
# As expected, alterations of FoxO1 in ALS myoblasts were accompanied by aberrant glycolytic flux, as indicated by lower ECAR values after addition of glucose to the media (FIG. 6F).
# [4] = test system: Caz or Tbph-silenced flies; experiment: Longevity assay in flies with muscle-conditioned silencing of Caz or Tbph; format: in vivo, Drosophila melanogaster; conditions: 30 μM, particularly iCaz and iTbph^attp40
# Excerpt: FIG. 7. Foxo inhibition improves muscle function and lifespan in Drosophila flies with muscle-conditioned deficiency of TDP-43 or FUS. […] F, Caz or Tbph-silenced flies have reduced survival times, as indicated by Kaplan-Meier curves (left panel) and median lifespan (right panel) (n=100 flies per group). […] This effect was particularly noticeable in iCaz and iTbph^attp40) fly lines (n=100 flies per group). *p<0.05: **p<0.01, ***p<0.001.
# We performed longevity assays to further characterize these fly models. Either of the Caz or Tbph-silenced flies manifested dramatic reductions of survival times when compared to control group, as indicated by Kaplan-Meier curves and median lifespan (FIG. 7F). […] This effect was particularly noticeable in iCaz and iTbph^attp40 fly lines (FIG. 7G).
smiles,measurement,setting,value
CCn1cc(C(=O)O)c(=O)c2c(N)c(F)c(NC3CCCCC3)cc21 [AS1842856],myogenic abnormalities,[1],alleviated
same,"myogenic capacity (MYHC-positive myotubes, differentiation index)",[2]; FUS-silenced myoblasts,improved the myogenic capacity
same,"myogenic capacity (MYHC-positive myotubes, differentiation index)",[2]; TDP-43 silenced myoblasts,rescued the myogenic arrest
same,"myogenic capacity (MYHC-positive myotubes, differentiation index)",[2]; control myoblasts,little effects
same,repressed glycolytic traits (glucose- and oligomycin-stimulated ECAR),[3]; proliferating myoblasts silenced for either TDP-43 or FUS,significant recovery
same,mitochondrial ATP production,[3]; shTDP-43 and shFUS-treated myoblasts,enhanced mitochondrial ATP production; also recorded: improved the mitochondrial ATP production
same,basal glycolysis rate (ECAR after glucose),primary ALS myoblasts,corrected; also recorded: improved the basal glycolysis rate
same,"survival (Kaplan-Meier, median lifespan)",[4],higher survival rates
